System: CT DNA
Test: viscometry (hydrodynamic studies) of CT DNA solutions
Assay type: binding, calf
Details: CT DNA 0.5 mM, drug 0.1 mM (0.2 dye/bp ratio)
Procedure: Calf thymus (CT) DNA was dissolved in 50 mM Na-phosphate buffer, pH 7.2, to a concentration of 0.1 or 0.5 mM relative to base pairs as described in the legend for FIGS. 3A and B. DNA solution was allowed to run through a custom-made capillary viscometer and the time necessary for the meniscus to pass a certain distance was measured using a stopwatch. All experiments were performed at 23° C. Viscosity values were calculated using the equation: η=(t−t0)/t0, where t is the flow time of DNA solution (with or without dye), and t0 is the flow time of Na-phosphate buffer alone. For each control and DNA solutions with dyes flow times were measured three to five times. Viscosity of DNA solutions with dyes were calculated as (η/η0)^1/3, where η0 and η are relative viscosities of the CT DNA solution in the absence and presence of the dye, respectively. This calculation stems from the relationship which exists between the relative solution viscosity and the relative contour length (L/L0): L/L0=(η/η0)^1/3, where L stands for the apparent molecular length (Muller, W. et al., 1968, J Mol Biol, 35, 251-290). Average viscosity values and standard error of the mean (SEM) were determined using (η/η0)^1/3 values calculated for each time flow measurement.
DNA-binding dyes interact with dsDNA by intercalation or external binding, or both. External binding most often involves the minor groove of DNA (Kopka et al.; Pjura, P. E., et al., 1987, J Mol Biol, 197, 257-271). Intercalation occurs when a ligand inserts itself between the opposite strands of DNA. In order to determine the mechanism of compound I binding to dsDNA, the inventors performed hydrodynamic studies. This approach is based on the observation that intercalating molecules increase the length of DNA fragments and, consequently, enhance the viscosity of DNA solutions (Muller W. et al.; Suh, D. et al., 1995, Bioorg Med Chem, 3, 723-728). For this experiment, compound I has been compared to the known DNA intercalator ethidium bromide and to the external minor groove binder Hoechst 33258. CT DNA at 0.5 mM was mixed with drugs at 0.1 mM concentration (0.2 dye/bp ratio) and used for viscometry measurements.
The inventors then wondered whether the increase in viscosity is equally matched by the increase in fluorescence intensity. To answer this question, CT DNA at 0.1 mM (bp) was mixed with increasing amounts of compound I and viscosity measurements were performed as above. The viscosity of the DNA/compound I solutions increased up to a dye/bp ratio 1 (FIG. 3B). To correlate the increase in viscosity with fluorescence, the inventors measured fluorescence intensities at 484 nm of the compound I/DNA solutions used for the viscosity measurements.

## CN1CCN(c2ccc3[nH]c(-c4ccc5[nH]c(-c6ccc(O)cc6)nc5c4)nc3c2)CC1 [Hoechst 33258, reference compound]
  effect on viscosity of DNA solution: decrease slightly
